# Patent EP3943081A1, “OPTIC NEUROPATHY TREATMENT AND REDUCTION OF STEROID- INDUCED OXIDATIVE STRESS WITH STABILIZED POLYUNSATURATED SUBSTANCES” (Retrotope, Inc., priority 2014, dated 2015)
# What was measured:
# [1] = tested on: Dhcr7-deficient Neuro2a neuroblastoma cells; test: Oxysterol levels in Dhcr7-deficient Neuro2a neuroblastoma cells treated with fatty acid; format: cell-based; details: for levels of oxysterols associated with free radical induced oxidation: 20 micromolar, Dhcr7 expression depleted by RNA interference, 7-DHC accumulates
# Procedure: Dhcr7-deficient Neuro2a neuroblastoma cells were treated with D2-linoleic acid, and non-deuterated linoleic acid ("Lin") was used in a control experiment. The level of Dhcr7 gene expression was depleted by RNA interference, leading to accumulation of 7-DHC in the cells. 7-DHC is 1-2 orders of magnitude more oxidizeable than linoleic acid, and so can easily initiate lipid peroxidation (See Yin et al., "Free Radical Lipid Peroxidation: Mechanisms and Analysis," Chem Rev. (2011), 111(10), 5944-5972).
# [2] = tested on: Q-less (coq2, coq3, and coq5) yeast mutants; details: cited from earlier work; for sensitivity of Q-less yeast to treatment: compared with the wild-type parental strain
# [3] = tested on: wild-type (the parental genetic background is strain W303-1B) cells; details: following a four hour treatment; 240 min; cited from earlier work
Compound,levels of oxysterols associated with free radical induced oxidation [1],sensitivity of Q-less yeast to treatment [2],also measured
"CCCCC/C=C\C/C=C\CCCCCCCC(=O)O [Lin, cis, cis-9,12-Octadecadienoic acid]",substantially increased,–,–
CCCCC/C=C\C/C=C\C/C=C\C/C=C\CCCC(=O)O [arachidonic acid],–,hypersensitive,–
CCCCCCCC/C=C\CCCCCCCC(=O)O [oleic acid],–,behave the same as the wild-type parental strain,–
"[2H]C([2H])(/C=C\CCCCC)/C=C\CCCCCCCC(=O)O [D2-Lin, 11,11-Dideutero-cis,cis-9,12-Octadecadienoic acid]",low levels,–,"oxidative stress ([1]; 20 micromolar (same concentration as Lin), judged by oxysterol levels): did not induce oxidative stress"
"CC/C=C\C/C=C\C/C=C\CCCCCCCC(=O)O [linolenic acid, cis,cis,cis-9,12,15-Octadecatrienoic acid]",–,–,"viable wild-type cells [3]: 70%; viable Q-less yeast mutants ([2]; following a four hour treatment, 240 min): Less than 1%"
